In brackets after ≈: the same amount, converted by molar mass. Several values for one entry are separate records, joined by “and”; a condition that tells them apart may be missing. Equal values may be shown once.
Assays:
[1] = system: S. aureus ATCC 25923; experiment: MIC, agar incorporation method; conditions: agar incorporation
[2] = system: S. pneum AB 34; experiment: MIC, agar incorporation method; conditions: agar incorporation
[3] = system: S. aureus; experiment: Summary of in vitro activity (MIC); conditions: S. aureus; for MIC50 / MIC90: Number 8
[4] = system: MRSA 15187; experiment: MIC, agar incorporation method; conditions: agar incorporation
[5] = Changes in MIC under different conditions: broth MIC; format: cell-based; conditions: strain not given
[6] = system: Ent. faecalis ATCC 29212; experiment: MIC, agar incorporation method; conditions: agar incorporation
[7] = system: MRSA 562; experiment: In vivo activity against MRSA 562 (ED50); set-up: species or system Methicillin Resistant Staphylococcus aureus; conditions: PO; MRSA 562 infection
[8] = system: E. faecalis; experiment: Summary of in vitro activity (MIC); conditions: E. faecalis; for MIC50 / MIC90: Number 7
[9] = system: MRSA 33; experiment: MIC, agar incorporation method; conditions: agar incorporation
[10] = Changes in MIC under different conditions: agar MIC; format: cell-based; conditions: strain not given
[11] = system: MRSA 562; experiment: MIC, agar incorporation method; conditions: for MIC: MRSA 562, Table 5; for MIC MRSA 562: agar incorporation, Table 1
[12] = system: Strep. pyog. ATCC 19615; experiment: MIC, agar incorporation method; conditions: agar incorporation
[13] = system: S. pneumoniae; experiment: Summary of in vitro activity (MIC); conditions: S. pneumoniae; for MIC50 / MIC90: Number 19
[14] = system: Strep. pne. ATCC 6303; experiment: MIC, agar incorporation method; conditions: agar incorporation
[15] = system: G +ve bacteria; experiment: Summary of in vitro activity (MIC); conditions: for MIC50 / MIC90: G +ve, Number 49
[16] = system: VRE 6A (Ent. faecium 6A); experiment: MIC, agar incorporation method; conditions: agar incorporation
[17] = system: P. acnes; experiment: Agar dilution MIC, anaerobes; format: cell-based; conditions: single isolates, anaerobic agar dilution
[18] = system: Fusobacterium nucleatum; experiment: Agar dilution MIC, anaerobes; format: cell-based; conditions: single isolates, anaerobic agar dilution
[19] = system: Clostridium perfringens; experiment: microbe, parasite or virus in culture; format: cell-based; conditions: single isolates, anaerobic agar dilution
[20] = system: Prevotella melaninogenica; experiment: Agar dilution MIC, anaerobes; format: cell-based; conditions: single isolates, anaerobic agar dilution
[21] = system: Peptostreptococcus prevotii; experiment: Agar dilution MIC, anaerobes; format: cell-based; conditions: single isolates, anaerobic agar dilution
[22] = system: Peptostreptococcus magnum; experiment: Agar dilution MIC, anaerobes; format: cell-based; conditions: single isolates, anaerobic agar dilution
[23] = system: Porphyromonas asaccharolytica; experiment: Agar dilution MIC, anaerobes; format: cell-based; conditions: single isolate, anaerobic agar dilution
[24] = system: Eubacterium leutum; experiment: Agar dilution MIC, anaerobes; format: cell-based; conditions: single isolates, anaerobic agar dilution
[25] = system: Peptostreptococcus tetradius; experiment: Agar dilution MIC, anaerobes; format: cell-based; conditions: single isolates, anaerobic agar dilution
[26] = system: Clostridium camis; experiment: Agar dilution MIC, anaerobes; format: cell-based; conditions: single isolates, anaerobic agar dilution
[27] = system: Fusobacterium necrogenes; experiment: Agar dilution MIC, anaerobes; format: cell-based; conditions: single isolate, anaerobic agar dilution
[28] = system: Peptostreptococcus asaccharolyticus; experiment: Agar dilution MIC, anaerobes; format: cell-based; conditions: single isolates, anaerobic agar dilution
[29] = system: anaerobic bacteria; experiment: Agar dilution method for anaerobic bacteria, summary; format: cell-based; conditions: anaerobes; for MIC50 / MIC90: Wilkins Chalgren agar, 48 hour
[30] = system: Fusobacterium varium; experiment: Agar dilution MIC, anaerobes; format: cell-based; conditions: single isolates, anaerobic agar dilution
[31] = system: Prevotella bivia; experiment: Agar dilution MIC, anaerobes; format: cell-based; conditions: single isolate, anaerobic agar dilution
[32] = system: Clostridium difficile; experiment: Agar dilution MIC, anaerobes; format: cell-based; conditions: single isolates, anaerobic agar dilution
[33] = system: Peptostreptococcus micros; experiment: Agar dilution MIC, anaerobes; format: cell-based; conditions: single isolates, anaerobic agar dilution
[34] = system: Prevotella intermedia; experiment: Agar dilution MIC, anaerobes; format: cell-based; conditions: single isolates, anaerobic agar dilution
[35] = system: Porphyromonas gingivalis; experiment: Agar dilution MIC, anaerobes; format: cell-based; conditions: single isolate, anaerobic agar dilution
[36] = system: MRSE 879; experiment: Broth MIC, MRSE 879; format: cell-based; conditions: MRSE 879
[37] = system: Prevotella (Bacteroides) disiens; experiment: Agar dilution MIC, anaerobes; format: cell-based; conditions: single isolates, anaerobic agar dilution; listed as Quin/dal
[38] = system: MRSE 879 adherent bacteria; experiment: Sintered glass adherent bacteria model; conditions: MRSE 879, sintered glass adherent bacteria model
[39] = system: Bacteroides fragilis; experiment: Agar dilution MIC, anaerobes; format: cell-based; conditions: single isolates, anaerobic agar dilution; listed as Quin/dal
[40] = system: Fusobacterium montiferum; experiment: Agar dilution MIC, anaerobes; format: cell-based; conditions: single isolates, anaerobic agar dilution; listed as Quin/dal

CC(=O)NC[C@H]1CN(c2ccc(N3CCC(N(C)C(=O)c4ccc([N+](=O)[O-])o4)CC3)c(F)c2)C(=O)O1 [Compound No. 44]
MIC S. aureus 25923 [1]: 0.25 µg/mL (≈ 0.497 µM) | MIC S. pneum AB 34 [2]: 2 µg/mL (≈ 3.97 µM) | Geometric Mean of in vitro activity (MIC) [3]: 0.11 µg/mL | MIC50 [3]: 0.064 µg/mL (≈ 0.127 µM) | MIC90 [3]: 0.25 µg/mL (≈ 0.497 µM) | MIC MRSA 15187 [4]: <0.1 µg/mL | Broth MIC +50% Sheep serum [5]: 0.25 µg/mL | Broth MIC Normal MH broth [5]: <0.1 µg/mL | MIC E. faecalis 29212 [6]: 0.25 µg/mL (≈ 0.497 µM) | ED50 (mg/kg body weight) PO [7]: >25 mg/kg body weight | Geometric Mean of in vitro activity (MIC) [8]: 0.11 µg/mL | MIC50 [8]: 0.064 µg/mL (≈ 0.127 µM) | MIC90 [8]: 0.25 µg/mL (≈ 0.497 µM) | MIC MRSA 33 [9]: <0.1 µg/mL | Agar MIC [10]: <0.1 µg/mL | MIC [11]: <0.1 µg/mL | MIC MRSA 562 [11]: <0.1 µg/mL | MIC S. pyogenes 19615 [12]: 0.5 µg/mL (≈ 0.993 µM) | Geometric Mean of in vitro activity (MIC) [13]: 0.96 µg/mL | MIC50 [13]: 1 µg/mL (≈ 1.99 µM) | MIC90 [13]: 2 µg/mL (≈ 3.97 µM) | MIC S. pneum 6303 [14]: 2 µg/mL (≈ 3.97 µM) | MIC50 [15]: 0.5 µg/mL (≈ 0.993 µM) | MIC90 [15]: 2 µg/mL (≈ 3.97 µM) | Geometric Mean of in vitro activity (MIC) ([15]; Gram + ve): 0.31 µg/mL | MIC VRE 6A [16]: <0.1 µg/mL

Amox + clav
MIC P. acnes [17]: 0.25 µg/mL | MIC Fusobacterium nucleatum [18]: <=.125 μg/ml | MIC Clostridium perfringens [19]: <=.125 μg/ml | MIC Prevotella melaninogenica [20]: 2 µg/mL | MIC Peptostreptococcus prevotii [21]: <=.125 μg/ml | MIC Peptostreptococcus magnum ([22]; listed as Ax/clav): 0.25 µg/mL and 0.5 µg/mL | MIC Porphyromonas asaccharolytica [23]: <=.125 μg/ml | MIC Eubacterium leutum [24]: 1 µg/mL | MIC Peptostreptococcus tetradius [25]: <=.125 μg/ml | MIC Clostridium camis [26]: <=.125 μg/ml | MIC Fusobacterium necrogenes [27]: 0.5 µg/mL | MIC Peptostreptococcus asaccharolyticus [28]: 0.25 µg/mL | Geometric Mean [29]: 0.423 µg/mL | MIC Range [29]: 0.062 to 32 µg/mL | MIC50 [29]: 0.25 µg/mL | MIC90 [29]: 8 µg/mL | MIC Fusobacterium varium [30]: 1 µg/mL | MIC Prevotella bivia [31]: <=.125 μg/ml | MIC Clostridium difficile [32]: 1 µg/mL | MIC Peptostreptococcus micros [33]: <=.125 μg/ml | MIC Prevotella intermedia [34]: <=.125 μg/ml | MIC Porphyromonas gingivalis [35]: <=.125 μg/ml

CC(=O)NC[C@H]1CN(c2ccc(N3CCN(C(=O)c4ccc([N+](=O)[O-])s4)CC3)c(F)c2)C(=O)O1.Cl [Compound No. 29, (S)-N[[3-[3-Fluoro-4-[N-1[4-(5-nitro-2-thienoyl)]piperazinyl]phenyl]2-oxo-5-oxazolidinyl]methyl]acetamide hydrochloride]
MIC S. aureus 25923 [1]: 0.25 µg/mL | MIC S. pneum AB 34 [2]: 1 µg/mL | MIC50 [3]: 0.064 µg/mL | MIC90 [3]: 0.25 µg/mL | MIC MRSA 15187 [4]: <0.1 µg/mL | Broth MIC +50% Sheep serum [5]: 0.5 µg/mL | Broth MIC Normal MH broth [5]: 0.25 µg/mL | MIC E. faecalis 29212 [6]: 1 µg/mL | ED50 (mg/kg body weight) PO [7]: >25 mg/kg body weight | MIC50 [8]: 1 µg/mL | MIC90 [8]: 1 µg/mL | MIC MRSA 33 [9]: <0.1 µg/mL | Agar MIC [10]: <0.1 µg/mL | MIC [11]: <0.1 µg/mL | MIC MRSA 562 [11]: <0.1 µg/mL | MIC S. pyogenes 19615 [12]: 1 µg/mL | MIC50 [13]: 1 µg/mL | MIC90 [13]: 1 µg/mL | MIC S. pneum 6303 [14]: 1 µg/mL | MIC50 [15]: 1 µg/mL | MIC90 [15]: 1 µg/mL | MIC VRE 6A [16]: 0.5 µg/mL

Synercid
MIC P. acnes [17]: <=.125 μg/ml | broth MIC [36]: 0.5 µg/mL | MIC Prevotella (Bacteroides) disiens [37]: >8 µg/mL and 8 µg/mL | MIC Clostridium perfringens [19]: 0.5 µg/mL | MIC Prevotella melaninogenica ([20]; listed as Quin/dal): 1 µg/mL and 2 µg/mL | MIC Peptostreptococcus prevotii [21]: 0.25 µg/mL | MIC Peptostreptococcus magnum [22]: 0.25 µg/mL | MIC Porphyromonas asaccharolytica [23]: <=.125 μg/ml | MIC Eubacterium leutum [24]: 0.25 µg/mL | MIC Peptostreptococcus tetradius [25]: 1 µg/mL | MIC Clostridium camis [26]: 0.5 µg/mL | MIC Fusobacterium necrogenes [27]: 0.25 µg/mL | concentration which would kill adherent bacteria [38]: 2 µg/mL | Geometric Mean [29]: 1.614 µg/mL | MIC Range [29]: 0.062 to 16 µg/mL | MIC50 [29]: 1 µg/mL | MIC90 [29]: 16 µg/mL | MIC Fusobacterium varium [30]: >8 µg/mL | MIC Prevotella bivia [31]: 2 µg/mL | MIC Clostridium difficile [32]: 0.5 µg/mL | MIC Peptostreptococcus micros ([33]; listed as Quin/dal): 0.5 µg/mL and 1 µg/mL | MIC Bacteroides fragilis [39]: 8 µg/mL and >8 µg/mL | MIC Prevotella intermedia [34]: 0.25 µg/mL | MIC Porphyromonas gingivalis [35]: 0.25 µg/mL | MIC Fusobacterium montiferum [40]: 8 µg/mL and >8 µg/mL and 4 µg/mL

CC(=O)NC[C@H]1CN(c2ccc(N3CCN(C(=O)c4ccoc4)CC3)c(F)c2)C(=O)O1 [Compound No. 08, (S)-N[[3-[3-Fluoro-4-[N-1[4-(3-furoyl)]piperazinyl]phenyl]2-oxo-5-oxazolidinyl]-methyl]acetamide]
MIC S. aureus 25923 [1]: 2 µg/mL (≈ 4.65 µM) | MIC S. pneum AB 34 [2]: 4 µg/mL (≈ 9.29 µM) | MIC MRSA 15187 [4]: 1 µg/mL (≈ 2.32 µM) | Broth MIC +50% Sheep serum [5]: 4 µg/mL | Broth MIC Normal MH broth [5]: 2 µg/mL | MIC E. faecalis 29212 [6]: 1 µg/mL (≈ 2.32 µM) | ED50 (mg/kg body weight) PO [7]: 25 mg/kg body weight | MIC MRSA 33 [9]: 1 µg/mL (≈ 2.32 µM) | Agar MIC [10]: 1 µg/mL | MIC [11]: 1 µg/mL (≈ 2.32 µM) | MIC MRSA 562 [11]: 1 µg/mL (≈ 2.32 µM) | MIC S. pyogenes 19615 [12]: 1 µg/mL (≈ 2.32 µM) | MIC S. pneum 6303 [14]: 2 µg/mL (≈ 4.65 µM) | MIC VRE 6A [16]: 1 µg/mL (≈ 2.32 µM)

Source: patent US20040254162A1, “Oxazolidinone derivatives as antimicrobials” (priority 2001, published 2004)
